Patent US20140161342A1, “DENSITY-BASED METHOD OF COMPARING IMAGES AND DETECTION OF MORPHOLOGICAL CHANGES USING THE METHOD THEREOF” (CENTRE NATIONAL DE LA RECHERCHE SCIENTIFIQUE CNRS, priority 2011, published 2014)

Key:
Type in all cases: cell-based, Human
[1] = system: multivesicular bodies (MVB); assay: Live cell analysis of MVB in unconstrained EGFP-CD63-expressing RPE-1 cells; settings: nocodazole 20 μM, last six time frames after addition
Description: In this example, morphological changes in the steady-state organization of MVB were monitored in a time period between two instants t1 and t2 when using a drug treatment. Thus, the density-based method of the present invention is applied to life cell analysis. More precisely, MVB were analyzed in unconstrained cells before and after treatment with nocodazole, illustrating that the present invention is not limited to the comparison of constrained cells but can also apply to the comparative study of unconstrained cells.
EGFP-CD63-expressing stable cells (generated by transfection of the plasmid pEGFP-CD63, Ostrowski et al. NATURE CELL BIOLOGY, January 2010) into RPE-1 cells and selection with 500 μg/ml geneticin) were seeded on iwaki glass base dishes (Asahi Glass) for live cell observation. To depolymerize microtubules, nocodazole (NZ) was added to a final concentration of 20 μM. […] The first two groups contained images in the absence of the drug (CG1 and CG2) and the second two groups contained images in the presence of the drug (TG1 and TG2) recorded after the addition of the drug. […]
Groups CG1 and CG2 are non-treated control groups with 1080 and 1002 detected CD63-positive structures that were acquired before addition of the drug.
Groups TG1 and TG2 are treated test groups containing 1019 and 801 structures that were recorded after the addition of the drug. […]

[2] = system: microtubules; assay: Density-based comparison of microtubules (β-tubulin stain), micropatterned RPE-1 cells; design: dose or concentration left out as unconfirmed; settings: nocodazole; 16 cells of CG, 16 cells of TG; tubulin structures
Description: Human RPE-1 cells kept in growth medium were trypsinized and seeded on micropattern-printed coverslips as described in EP 1664266. To depolymerize microtubules, nocodazole was added to a final concentration of 10 M to TG. TG and CG were both subsequently incubated for 1 h at 4° C. and 1 h at 37° C. Cells were fixed with 4% (wt/vol) paraformaldehyde (PFA) and proceeded for indirect immunofluorescence staining with primary β-tubulin antibodies (Sigma-Aldrich) to visualize microtubules and fluorophore-coupled secondary antibodies.
3D image stacks of n cells of each condition (TG and CG) were acquired with 100× magnification and Z-series every 0.2 m. Images were deconvolved and segmented in order to detect signals that are larger than noise. To represent continuous structures (microtubules and Rab8-marked membranes domains) by a cloud of coordinates, we “cut” them in several small structures by increasing the watershed during segmentation. The coordinates of the segmented structures from all cells were aligned using the micropattern geometry and the coordinate sample of the TG was compared with the coordinate sample of the CG using the above-described method for each intracellular compartment analyzed.
Each coordinate stands for one fluorescent fragment. […]

[3] = system: multivesicular bodies (MVB); assay: Density-based comparison of multivesicular body (MVB) morphology, CD63 stain, micropatterned RPE-1 cells; settings: nocodazole 10 μM, 1 h at 4° C. and 1 h at 37° C., 40 cells of CG, 40 cells of TG
Description: Human RPE-1 cells kept in growth medium were trypsinized and seeded on micropattern-printed coverslips as described in EP 1664266. To depolymerize microtubules, nocodazole was added to a final concentration of 10 μM to TG. TG and CG were both subsequently incubated for 1 h at 4° C. and 1 h at 37° C. Cells were fixed with 4% (wt/vol) paraformaldehyde (PFA) and proceeded for indirect immunofluorescence staining with primary α-CD63 antibodies (Invitrogen) to visualize MVB, α-GM130 antibodies to visualize the Golgi apparatus and α-Sec13 antibodies to visualize ERES as well as fluorophore-coupled secondary antibodies. 3D image stacks of n cells of each condition (TG and CG) were acquired with 100× magnification and Z-series every 0.2 μm. […] The coordinates of the segmented structures from all cells were aligned using the micropattern geometry and the coordinate sample of the TG was compared with the coordinate sample of the CG using the above-described method for each intracellular compartment analyzed.
Parts A and B of FIG. 5 illustrate representative fluorescent images of one cell from CG (designated by “Crtl”) and one cell from TG (designated by “NZ” for nocodazole) stained for MVB. […] As shown in prior art, the steady-sate three-dimensional organization of MVB is constant in micropatterned cells as analyzed here. […]

[4] = system: Golgi apparatus; assay: Density-based comparison of Golgi apparatus morphology, GM130 stain, micropatterned RPE-1 cells; settings: nocodazole 10 μM, 15 cells of CG, 20 cells of TG
Description: (§1) Human RPE-1 cells kept in growth medium were trypsinized and seeded on micropattern-printed coverslips as described in EP 1664266. To depolymerize microtubules, nocodazole was added to a final concentration of 10 μM to TG. TG and CG were both subsequently incubated for 1 h at 4° C. and 1 h at 37° C. Cells were fixed with 4% (wt/vol) paraformaldehyde (PFA) and proceeded for indirect immunofluorescence staining with primary α-CD63 antibodies (Invitrogen) to visualize MVB, α-GM130 antibodies to visualize the Golgi apparatus and α-Sec13 antibodies to visualize ERES as well as fluorophore-coupled secondary antibodies. 3D image stacks of n cells of each condition (TG and CG) were acquired with 100× magnification and Z-series every 0.2 μm. Images were deconvolved and segmented in order to detect signals that are fifteen-fold larger than noise. The coordinates of the segmented structures from all cells were aligned using the micropattern geometry and the coordinate sample of the TG was compared with the coordinate sample of the CG using the above-described method for each intracellular compartment analyzed.
Parts A and B of FIG. 6 illustrate representative fluorescent images of one cell from CG (designated by “Crtl”) and one cell from TG (designated by “NZ” for nocodazole) stained for the Golgi apparatus. […]

[5] = system: endoplasmic reticulum exit sites (ERES); assay: Density-based comparison of endoplasmic reticulum exit sites (ERES), Sec13 stain, micropatterned RPE-1 cells; settings: nocodazole 10 μM, 15 cells of CG, 11 cells of TG
Description: as §1
Parts A and B of FIG. 7 illustrate representative fluorescent images of one cell from CG (designated by “Crtl”) and one cell from TG (designated by “NZ” for nocodazole) stained for ERES. […]

Which “P2D-value, non-treated group CG1 vs treated group TG2” value [1] does the source give for `COC(=O)Nc1nc2ccc(C(=O)c3cccs3)cc2[nH]1` [nocodazole] here?
Its value is 4.00*10^−6.

What about the “P3D-value, non-treated group CG1 vs treated group TG2” value [1] of the same molecule?
Its value is 4.84*10^−6.

And the “P2D-value, comparison TG/CG” value [2]?
Its value is 6.5862*10^−41.

What about the “P3D-value, comparison TG/CG” value [2] of the same molecule?
The value was 2.7758*10^−228.

What about the “P2D-value, comparison TG/CG” value [3] of the same molecule?
Its value is 1.589*10^−5.

What about the “P3D-value, comparison TG/CG” value [3] of the same molecule?
Its value is 1.280*10^−11.

What about the “P2D-value, comparison TG/CG” value [4] of the same molecule?
The value was 0.9524*10^−2.

And the “P3D-value, comparison TG/CG” value [4]?
Its value is 1.8741*10^−2.

And the “P2D-value, comparison TG/CG” value [5]?
Its value is 0.3416*10^−3.

What about the “P3D-value, comparison TG/CG” value [5] of the same molecule?
Its value is 0.1118*10^−6.
